Patent US8541364B2, “Use of a octreotide as a therapeutic agent” (Mondobiotech Laboratories AG, priority 2007, dated 2013)

Experiments:
HCMV strain AD169 = experiment: HCMV plaque reduction assay; format: cell-based; settings: HCMV in MRC-5 cells; peptide 10 micrograms per ml; 7-10 days
Source text: (§1) Cells were split twic a week 1:2.
Ganciclovir was used as positive control.

Pseudomonas aeruginosa = Pseudomonas aeruginosa assay; format: cell-based; settings: Pseudomonas aeruginosa growth; peptide 10 micrograms per ml
Procedure: (§2) The antibacterial assay was conducted using clear, U-bottom 96-well microtiter plates. Cation-adjusted Mueller-Hinton Broth (MHB) was used for testing Pseudomonas aeruginosa. The peptide of the invention (0.1 ml of each—10 micrograms per ml—) was dispensed into wells in duplicate. Then the wells were inoculated with 5×10^5 CFU/mL Pseudomonas aeruginosa in 0.1 ml volume. For control purposes, each plate included 4 wells containing media without bacterial inoculum and 4 wells containing medium with inoculum but without peptide. The plates were incubated for 12 h at 37° C., and read visually 18-24 hours post-incubation. Growth control of Pseudomonas aeruginosa was examined first to determine adequacy of media preparations and growth conditions. Acceptable growth is defined as ≧2 mm wide button of cells at the bottom of each sample well, or obvious turbidity in the culture supernatant. Test wells were examined and scored as positive/negative for activity. A positive score for activity is based on complete inhibition of macroscopic growth of the test Pseudomonas aeruginosa.

HUVEC [1] = experiment: Endothelial cell migration assay; format: cell-based, human; settings: 10 micrograms per ml, 22 hours
Procedure: Endothelial cell migration is a prerequisite for the process of neo-vascularization or angiogenesis which is crucial for on-site recruitment of blood vessel formation. Primary Human endothelial cells (HUVEC) were seeded in insert chambers with 3 micrometer pore size of multi-transwell plate for 6 hours at 37° C. in Endothelial Cell Basal Medium (EBM) supplemented with 0.1% bovine serum albumin. Thereafter, designated concentration of test peptide—10 micrograms per ml—was added in duplicate wells. The endothelia were allowed to migrate for 22 hours at 37° C., then, migrated cells were fixed and stained with Hoechst 33342 dye. Images of 3 fields per insert were taken and the number of migrated cells per field were quantified using the ImageProPlus software. Data were analyzed for the average number of the migrated cells and standard deviation of six data points for each treatment condition. Active test peptide against HUVEC migration was determined based on 50% inhibition of migrated cells as compared with the control. Statistic p values were computed using the Student's t-test.

CEM-SS cells = experiment: HIV-1 assay cytotoxicity, MTS cell viability; settings: peptide 10 micrograms per ml
A549 cells [2] = experiment: Apoptosis prevention assay (Annexin-5, C2 ceramide); format: cell-based, human; settings: A549 cells pretreated 30 min; 10 micrograms per ml
Source text: Human A549 cells (carcinomic human alveolar basal epithelial cells) were utilized in the experiments employing the Annexin-5 apoptosis assay. Annexin-5 is a member of a highly conserved protein family that binds acidic phospholipids in a calcium-dependent manner. […] Phosphatidylserine is translocated from the inner side of the plasma membrane to the outer layer when cells undergo death by apoptosis or cell necrosis and serves as a signal by which cell destined for death are recognized by phagocytes. A549 cells were pretreated for 30 min with test peptide—10 micrograms per ml—followed by the exposure to C2 ceramide. Ceramide mediates cell apoptosis through the activation of the mitogen activating protein kinase (MAPK) and the stress activated kinase (JNK/SAPK). C2 ceramide is a synthetic, membrane soluble analog of ceramide.

A549 cells [3] = experiment: Apoptosis induction assay (Annexin-5); format: cell-based, human; settings: 10 micrograms per ml, 24 hours
Source text: Human A549 cells (carcinomic human alveolar basal epithelial cells) were utilized in the experiments employing the Annexin-5 apoptosis assay. Annexin-5 is a member of a highly conserved protein family that binds acidic phospholipids in a calcium-dependent manner. […] Phosphatidylserine is translocated from the inner side of the plasma membrane to the outer layer when cells undergo death by apoptosis or cell necrosis and serves as a signal by which cell destined for death are recognized by phagocytes. Test peptide—10 micrograms per ml—were exposed for 24 hours to the A549 cells before they were analyzed for signs of apoptosis.

Streptococcus pneumoniae = Streptococcus pneumoniae assay; format: cell-based; settings: Streptococcus pneumoniae growth; peptide 10 micrograms per ml
Procedure: as §2, with “Streptococcus pneumoniae.” for “Pseudomonas aeruginosa.”, “Streptococcus pneumoniae” for “Pseudomonas aeruginosa”

HIV-1IIIB = experiment: HIV-1 antiviral assay, CPE reduction (MTS); settings: peptide 10 micrograms per ml; 6 days post-infection
MRSA = experiment: Methicillin resistant Staphylococcus aureus (MRSA) assay; format: cell-based; settings: MRSA growth; peptide 10 micrograms per ml
Procedure: as §2, with “MRSA.” for “Pseudomonas aeruginosa.”, “MRSA” for “Pseudomonas aeruginosa”, “2” for “≧2”

HepG2-2.2.15 cells = experiment: HBV assay cytotoxicity, dye uptake cell viability; format: cell-based; settings: peptide 10 micrograms per ml
[4] = system: PHA-stimulated PBMC (T cell proliferation); experiment: T cell proliferation assay; format: cell-based, human; settings: 3H-thymidine incorporation; 10 micrograms per ml
Procedure: Human Peripheral Blood Mononuclear Cells (PBMC) were obtained from normal human donors. The T cell proliferation was induced by stimulation of the cells with the T cell mitogen phytohemagglutinin (PHA), either in the absence (positive proliferation control), or in the presence of test peptide—10 micrograms per ml—to examine their effects on the T cell proliferating response. 10^5/well PBMC were plated in 96-well microtiter plates and assayed in duplicate with the peptide. Cell cultures were incubated at 37° C. for 3 days in a 5% CO2 incubator and were thereafter pulsed with 1 microCi/well ^3H-thymidine for additional 12 hours of culture. At the end of incubation time, the plates were harvested and the cells counted by liquid scintillation for the incorporation of ^3H-thymidine as a measure of T cell proliferation.

A549 cells [5] = experiment: Propidium iodide cell cycle assay; format: cell-based, human; settings: 10 micrograms per ml, 24 hours
Procedure: Human A549 cells (carcinomic human alveolar basal epithelial cells) were utilized in the experiments employing the Propidium iodide cell cycle assay. The eukaryotic cell cycle is a series of events that take place in a cell leading to its replication.
Propidium iodide is an intercalating agent and a fluorescent molecule that can be used to stain DNA. Cells were incubated for 24 hours with test peptide—10 micrograms per ml—or left untreated. After that cells were trypsinized, suspended in medium+10% FCS, centrifuged (1000 rpm, 5 min), and the cell pellet resuspended in PBS (1 ml). The cells were pipetted into 2.5 ml absolute EtOH (final concentration approx. 70%) and incubated on ice for 15 min. Thereafter, cells were pelleted at 1500 rpm for 5 min and resuspended in Propidium iodide solution in PBS. After incubation for 40 min at 37° C., cells were analyzed in the FACS.

MRC-5 cells = experiment: HCMV assay cytotoxicity testing, CellTiter 96; format: cell-based, human; settings: 6 days incubation
Procedure: as §1
For cytotxicity testing, MRC-5 cells were seeded at 2,500 cells/well in 96 well plates using growth medium. […] The following day, peptide was added and tested in duplicates. After a 6 days incubation period, cell viability was measured using CellTiter 96 Solution (Promega). Plates were incubated for additional 4 hours at 37° C.

[6] = system: Ovalbumin-restimulated spleen cells; experiment: Th1/Th2 cytokine profiling assay; format: cell-based, Balb/c mice; settings: 10 micrograms per ml; 72 hours
Source text: The Balb/c mice (originated in 1923, it is a popular strain and is used in many different research disciplines. Also classified as an inbred from the production of 20 or more successive brother-sister matings, the Balb/c mouse is albino and small in size) were immunized on Days 1, 15, and 29 with Ovalbumin (Ovalbumin is the main protein found in egg white, commonly used to stimulate an immunological reaction in test animals) in PBS (5 micrograms/injection). On day 50, spleens of the mice were harvested (3 weeks after last boost with Ovalbumin). Cells were cultured (2×10^5/well in triplicate) and incubated with culture medium or test peptide—10 micrograms per ml—for 30 min. Thereafter, additional Ovalbumin was added to the cells at 10 micrograms/ml for in vitro restimulation of the cells. 72 hours later, cell supernatants were harvested and assayed using the Becton Dickinson Mouse Th1/Th2 Cytokine CBA Kit. This kit can be used to measure Interleukin-2 (IL-2), Interleukin-4 (IL-4), Interleukin-5 (IL-5), Interferon-γ (IFN-γ), and Tumor Necrosis Factor-α (TNF-α) protein levels in a single sample. The kit performance has been optimized for analysis of physiologically relevant concentrations (pg/ml levels) of specific cytokine proteins in tissue culture supernatants and serum samples.

HUVEC [7] = experiment: Endothelial tube formation assay; format: cell-based, human; settings: 10 micrograms per ml, 20 hours
Procedure: The endothelial tube formation assay is based on the ability of endothelial cells to form three-dimensional capillary-like tubular structures when cultured on a gel of basement membrane extract. The endothelial tube formation assay represents a powerful model for studying inhibition and induction of angiogenesis. Pre-labeled HUVEC with Calcein AM were seeded in a 96-well culture plate coated with extracellular metrix (Chemicon international Cat. ECM625) and treated with test peptide—10 micrograms per ml—in full growth medium. Positive control was vehicle only. The endothelial cells were allowed to form tubes foe 20 hours and were then examined under an inverted fluorescent microscope. Duplicate wells for each treatment were photographed and quantitatevily analyzed for an average tubule length using image analysis software ImageProPlus. Raw data were expressed as average tubule lenghs in pixels±standard deviation. Statistic p values were computed using the Student's t-test.

| Structure (SMILES) | % plaque reduction (HCMV strain AD169) [%] | % inhibition (Pseudomonas aeruginosa) [%] | % inhibition of migration (HUVEC [1]) [%] | % Cell viability (CEM-SS cells) [%] | % prevention of ceramide induced apoptosis (A549 cells [2]) [%] | % of induction (A549 cells [3]) [%] | % inhibition (Streptococcus pneumoniae) [%] | % CPE reduction in HIV-1 infected CEM-SS cells (HIV-1IIIB) [%] | % inhibition (MRSA) [%] | % Cell viability (HepG2-2.2.15 cells) [%] | % of PHA induced control [4] [%] | Cell cycle analysis G2/M (A549 cells [5]) | % Cell viability (MRC-5 cells) [%] | IFNγ spleen cells; TH1 response (% of control) [6] | % inhibition of tube formation (HUVEC [7]) [%] |
| --- | --- | --- | --- | --- | --- | --- | --- | --- | --- | --- | --- | --- | --- | --- | --- |
| C[C@@H](O)[C@@H]1NC(=O)[C@H](CCCCN)NC(=O)[C@@H](Cc2c[nH]c3ccccc23)NC(=O)[C@H](Cc2ccccc2)NC(=O)[C@@H](NC(=O)[C@H](N)Cc2ccccc2)CSSC[C@@H](C(=O)N[C@H](CO)[C@@H](C)O)NC1=O [Octreotide, D-Phe-Cys-Phe-D-Trp-Lys-Thr-Cys-L-threoninol] | 0.0 | 0.0 | −24 | 100 | 0.0 | 2.6 | 100.0 | 0.0 | 0.0 | 97.8 | 100.0 | 9.2 | 100 | 56.0 % of control | 8 |
| CC(C)(C)NC(=O)[C@@H]1CN(Cc2cccnc2)CCN1C[C@@H](O)C[C@@H](Cc1ccccc1)C(=O)N[C@H]1c2ccccc2C[C@H]1O [Indinavir] | – | – | – | – | – | – | – | 100 | – | – | – | – | – | – | – |
| Cc1cn([C@H]2C[C@H](N=[N+]=[N-])[C@@H](CO)O2)c(=O)[nH]c1=O [AZT, reference compound] | – | – | – | 97 | – | – | – | 99 | – | – | – | – | – | – | – |
